{"source": "patent US4582827A", "about": "“Pesticidal diphenylaziridines” (priority 1983, dated 1986)", "key": {"[1]": {"test_system": "tobacco hornworm (Manduca sexta) larvae", "experiment": "Tobacco hornworm growth and developmental responses to feeding on diets containing the compounds", "assay_type": "in vivo"}, "[2]": {"test_system": "tobacco hornworm larvae (newly ecdysed fifth-instar)", "experiment": "Topical application to tobacco hornworm larvae", "assay_type": "in vivo, Manduca sexta", "conditions": "2000 μg/larvae (1600 ppm)", "description": "The test compounds were dissolved either in acetone or hexane and applied to the integument of the test insect with a micro applicator. Newly ecdysed fifth-instar tobacco hornworm larvae weighing between 1-1.5 g were used and toxicity data were obtained in the same way as previously described."}, "H. virescens": {"test_system": "H. virescens", "experiment": "Incorporation into H. virescens diet", "assay_type": "in vivo, Heliothis virescens", "conditions": "as much as 20 mM in diet", "description": "Compounds 1, 10, 11, 13 and 14 were incorporated into H. virescens diet in the same manner as M. Sexta. Diets containing as much as 20 mM of each compound had little effect on larval development time, pupal weight or time to adult emergence."}, "[3]": {"experiment": "Acute oral toxicity test using the rat", "conditions": "in vivo", "text": "In these studies, it has been determined that the 1,2-diphenylaziridines of this invention have low mammalian toxicity.\nImmediate effects, resulting from insecticide toxicity, are usually related to the principal toxic action of the compound."}, "[4]": {"test_system": "Salmonella typhimurium strains TA 98, TA 100, TA 1535, TA 1537, TA 1538, TA 1978", "experiment": "Ames assay (spot test), revertant colonies", "assay_type": "cell-based", "description": "This means that aziridine compounds, 1, 10, or 11, will not cause mutations in DNA arising from potential changes in frame shift and/or base pairing. Compounds 1, 10 and 11 were tested for mutagenic properties using the following experimental procedure.\nPotential mutagenic and carcinogenic properties of the compounds were evaluated with standard Ames assay procedures (Ames et al, \"Mutation Res.\", 31, p. 347, 1975). This assay used strains of Salmonella typhimurium selected for sensitivity and specificity in being reverted from a histidine requirement back to prototrophy by a wide variety of mutagens. Potential changes in frameshift were evaluated using strains TA 98, TA 1537 and TA 1538, while changes in base pairing were detected using strains TA 100 and TA 1535. In addition, strain TA 1978 was used, in combination with TA 1538, to evaluate whether the agent killed bacteria by damage to DNA that could be repaired by this strain. Initially, the compounds were screened using the spot test, in which 1000 μgm of material dissolved in 10 μl of DNSO was applied to the middle of the plate.\nDose-response tests were not performed because the results were negative. All the tests were carried out in the presence and absence of an S9 rat liver preparation and contained a positive control (2-acetylaminofluorene,AAF) and a negative control (DMSO)."}}, "data": [{"smiles": "Clc1ccc(N2CC2c2ccccc2Cl)cc1Cl", "note": "(stereo not drawn) [Compound 10, 1-(3-4-dichlorophenyl)-2-(2-chlorophenyl)aziridine]", "values": [{"measurement": "% Adult Emergence", "setting": "[1]; 5 mM in diet", "value": 7, "unit": "%"}, {"measurement": "% Malformed Adults", "setting": "[1]; 5 mM in diet", "value": 100, "unit": "%"}, {"measurement": "% Pupation", "setting": "[1]; 5 mM in diet", "value": 80, "unit": "%"}, {"measurement": "Days to Max Wt", "setting": "[1]; 5 mM in diet", "value": "7.5 ± .3 days"}, {"measurement": "Max Larval Wt", "setting": "[1]; 5 mM in diet", "value": "5.69 ± .27 g"}, {"measurement": "Mean No. of Eggs", "setting": "[1]; 5 mM in diet", "value": "55 ± 0"}, {"measurement": "No. of female Adults", "setting": "[1]; 5 mM in diet", "value": 1}, {"measurement": "feeding time required to attain reduced maximum weight", "setting": "[1]; 5 mM in diet", "value": "extended the feeding time"}, {"measurement": "pupal mortality", "setting": "[1]; 5 mM in diet", "value": "significant pupal mortality"}, {"measurement": "reduction in the maximum weight of hornworm larvae", "setting": "[1]; 5 mM in diet", "value": "30-50%"}, {"measurement": "wrinkled or crumpled wings of moths", "setting": "[1]; 5 mM in diet", "value": "observed in significant numbers of moths"}, {"measurement": "Total No. of Adults", "setting": "[1]; 5 mM in diet, all tests began with 15 larvae", "value": 1}, {"measurement": "oral activity", "setting": "[1]; diet, Example 2", "value": "good oral activity"}, {"measurement": "pupal mortality", "setting": "[1]; summary of Tables I and II", "value": "caused pupal mortality"}, {"measurement": "topical effect", "setting": "[2]", "value": "ineffective"}, {"measurement": "effect on larval development time, pupal weight or time to adult emergence", "setting": "H. virescens", "value": "little effect"}, {"measurement": "LD50", "setting": "[3]", "value": "> 2000", "unit": "mg/kg"}, {"measurement": "Mean number of revertant colonies per plate, TA 98 +S9", "setting": "[4]; strain TA 98, +S9", "value": 45.3, "unit": "colonies per plate"}, {"measurement": "Mean number of revertant colonies per plate, TA 98 -S9", "setting": "[4]; strain TA 98, -S9", "value": 26.7, "unit": "colonies per plate"}, {"measurement": "Mean number of revertant colonies per plate, TA 100 +S9", "setting": "[4]; strain TA 100, +S9", "value": 56.0, "unit": "colonies per plate"}, {"measurement": "Mean number of revertant colonies per plate, TA 100 -S9", "setting": "[4]; strain TA 100, -S9", "value": 26.3, "unit": "colonies per plate"}, {"measurement": "Mean number of revertant colonies per plate, TA 1535 +S9", "setting": "[4]; strain TA 1535, +S9", "value": 20.3, "unit": "colonies per plate"}, {"measurement": "Mean number of revertant colonies per plate, TA 1535 -S9", "setting": "[4]; strain TA 1535, -S9", "value": 25.0, "unit": "colonies per plate"}, {"measurement": "Mean number of revertant colonies per plate, TA 1537 +S9", "setting": "[4]; strain TA 1537, +S9", "value": 13.7, "unit": "colonies per plate"}, {"measurement": "Mean number of revertant colonies per plate, TA 1537 -S9", "setting": "[4]; strain TA 1537, -S9", "value": 9.0, "unit": "colonies per plate"}, {"measurement": "Mean number of revertant colonies per plate, TA 1538 +S9", "setting": "[4]; strain TA 1538, +S9", "value": 35.7, "unit": "colonies per plate"}, {"measurement": "Mean number of revertant colonies per plate, TA 1538 -S9", "setting": "[4]; strain TA 1538, -S9", "value": 12.0, "unit": "colonies per plate"}, {"measurement": "Mean number of revertant colonies per plate, TA 1978 +S9", "setting": "[4]; strain TA 1978, +S9", "value": 202.0, "unit": "colonies per plate"}, {"measurement": "Mean number of revertant colonies per plate, TA 1978 -S9", "setting": "[4]; strain TA 1978, -S9", "value": 196.0, "unit": "colonies per plate"}, {"measurement": "mutagenicity", "setting": "[4]; with and without S9 / mammalian liver enzymes", "value": "not mutagenic"}]}]}
